In patent US11091478B2 (Fochon Pharmaceuticals, Ltd., priority 2017, dated 2021):

Tests used:
[1] = tested on: DOHH2 cells; assay: Cell proliferation assay (MTS), DOHH2 cells, 120 h; assay type: cell-based; details: Homo sapiens, DOHH-2, 120 h
In short: (§1)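 Cells in RPMI-1640 with 10% FBS were seeded at 5000/well, left overnight at 37° C., 5% CO2, then exposed to compound at 10000 down to 1.5 nM (nine concentrations) for 72 h (RS4;11) or 120 h (DOHH2). Viability was read by MTS, 2 h, absorbance at 490/650 nm; IC50 calculated.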

[2] = tested on: RS4;11 cells; assay: Cell proliferation assay (MTS), RS4;11 cells, 72 h; assay type: cell-based; details: Homo sapiens, RS4-11, 72 h
In short: as §1

Work on `COCC[C@H]1CSc2cc(S(=O)(=O)NC(=O)c3ccc(N4CCN(CC5=C(c6ccc(Cl)cc6)CC(C)(C)CC5)CC4)cc3Oc3cnc4[nH]ccc4c3)cc([N+](=O)[O-])c2N1` [Example 3-16, (S)-2-((1H-pyrrolo[2,3-b]pyridin-5-yl)oxy)-4-(4-((4′-chloro-5,5-dimethyl-3,4,5,6-tetra-hydro-[1,1′-biphenyl]-2-yl)methyl)piperazin-1-yl)-N-((3-(2-methoxyethyl)-5-nitro-3,4-dihydro-2H-benzo[b][1,4]thiazin-7-yl)sulfonyl)benzamide] yielded an IC50 [1] of 132 nM and an IC50 [2] of 33 nM.

For `CS(=O)OCC[C@H]1CSc2cc(S(=O)(=O)NC(=O)c3ccc(N4CCN(CC5=C(c6ccc(Cl)cc6)CC(C)(C)CC5)CC4)cc3Oc3cnc4[nH]ccc4c3)cc([N+](=O)[O-])c2N1` (stereo partly drawn) [Example 3-17, 2-((S)-7-(N-(2-((1H-pyrrolo[2,3-b]pyridin-5-yl)oxy)-4-(4-((4′-chloro-5,5-dimethyl-3,4,5,6-tetrahydro-[1,1′-biphenyl]-2-yl)methyl)piperazin-1-yl)benzoyl)sulfamoyl)-5-nitro-3,4-dihydro-2H-benzo[b][1,4]thiazin-3-yl) ethyl methanesulfinate], the IC50 [1] was 49 nM and the IC50 [2] was 19 nM.

Work on `CC1(C)CCC(CN2CCN(c3ccc(C(=O)NS(=O)(=O)c4cc5c(c([N+](=O)[O-])c4)N[C@@H](CCS(C)(=O)=O)CS5)c(Oc4cnc5[nH]ccc5c4)c3)CC2)=C(c2ccc(Cl)cc2)C1` [Example 3-18, (S)-2-((1H-pyrrolo[2,3-b]pyridin-5-yl)oxy)-4-(4-((4′-chloro-5,5-dimethyl-3,4,5,6-tetra-hydro-[1,1′-biphenyl]-2-yl)methyl)piperazin-1-yl)-N-((3-(2-(methylsulfonyl)ethyl)-5-nitro-3,4-dihydro-2H-benzo[b][1,4]thiazin-7-yl)sulfonyl)benzamide] yielded an IC50 [1] of 54 nM and an IC50 [2] of 20 nM.

With `CN1CCN(CC[C@H]2CSc3cc(S(=O)(=O)NC(=O)c4ccc(N5CCN(CC6=C(c7ccc(Cl)cc7)CC(C)(C)CC6)CC5)cc4Oc4cnc5[nH]ccc5c4)cc([N+](=O)[O-])c3N2)CC1` [Example 3-19, (S)-2-((1H-pyrrolo[2,3-b]pyridin-5-yl)oxy)-4-(4-((4′-chloro-5,5-dimethyl-3,4,5,6-tetra-hydro-[1,1′-biphenyl]-2-yl)methyl)piperazin-1-yl)-N-((3-(2-(4-methylpiperazin-1-yl)ethyl)-5-nitro-3,4-dihydro-2H-benzo[b][1,4]thiazin-7-yl)sulfonyl)benzamide] the IC50 [1] was 6 nM and the IC50 [2] was 1 nM.

Compound `CC1(C)CCC(CN2CCN(c3ccc(C(=O)NS(=O)(=O)c4cc5c(c([N+](=O)[O-])c4)N[C@@H](CCN4CCOCC4)CS5)c(Oc4cnc5[nH]ccc5c4)c3)CC2)=C(c2ccc(Cl)cc2)C1` [Example 3-20, (S)-2-((1H-pyrrolo[2,3-b]pyridin-5-yl)oxy)-4-(4-((4′-chloro-5,5-dimethyl-3,4,5,6-tetra-hydro-[1,1′-biphenyl]-2-yl)methyl)piperazin-1-yl)-N-((3-(2-morpholinoethyl)-5-nitro-3,4-dihydro-2H-benzo[b][1,4]thiazin-7-yl)sulfonyl)benzamide] has an IC50 [1] of 9 nM and an IC50 [2] of 2 nM.

In the case of `CN1CCN(C[C@@H]2CNc3cc(S(=O)(=O)NC(=O)c4ccc(N5CCN(CC6=C(c7ccc(Cl)cc7)CC(C)(C)CC6)CC5)cc4Oc4cnc5[nH]ccc5c4)cc([N+](=O)[O-])c3N2)CC1` [Example 4-1, (S)-2-((1H-pyrrolo[2,3-b]pyridin-5-yl)oxy)-4-(4-((4′-chloro-5,5-dimethyl-3,4,5,6-tetrahydro-[1,1′-biphenyl]-2-yl)methyl)piperazin-1-yl)-N-((2-((4-methylpiperazin-1-yl)methyl)-8-nitro-1,2,3,4-tetrahydroquinoxalin-6-yl)sulfonyl)benzamide], the IC50 [1] is reported as 13 nM and the IC50 [2] is reported as 1 nM.

In the case of `CC1(C)CCC(CN2CCN(c3ccc(C(=O)NS(=O)(=O)c4cc5c(c([N+](=O)[O-])c4)N[C@H](CN4CCOCC4)CN5)c(Oc4cnc5[nH]ccc5c4)c3)CC2)=C(c2ccc(Cl)cc2)C1` [Example 4-2, (S)-2-((1H-pyrrolo[2,3-b]pyridin-5-yl)oxy)-4-(4-((4′-chloro-5,5-dimethyl-3,4,5,6-tetra-hydro-[1,1′-biphenyl]-2-yl)methyl)piperazin-1-yl)-N-((2-(morpholinomethyl)-8-nitro-1,2,3,4-tetrahydroquinoxalin-6-yl)sulfonyl) benzamide], the IC50 [1] is reported as 29 nM and the IC50 [2] is reported as 9 nM.

Work on `CN1CCN(C[C@H]2CNc3cc(S(=O)(=O)NC(=O)c4ccc(N5CCN(CC6=C(c7ccc(Cl)cc7)CC(C)(C)CC6)CC5)cc4Oc4cnc5[nH]ccc5c4)cc([N+](=O)[O-])c3N2)CC1` [Example 4-3, (R)-2-((1H-pyrrolo[2,3-b]pyridin-5-yl)oxy)-4-(4-((4′-chloro-5,5-dimethyl-3,4,5,6-tetra-hydro-[1,1′-biphenyl]-2-yl)methyl)piperazin-1-yl)-N-((2-((4-methylpiperazin-1-yl)methyl)-8-nitro-1,2,3,4-tetrahydroquinoxalin-6-yl)sulfonyl)benzamide] yielded an IC50 [1] of 38 nM and an IC50 [2] of 46 nM.

Compound `CC1(C)CCC(CN2CCN(c3ccc(C(=O)NS(=O)(=O)c4cc5c(c([N+](=O)[O-])c4)N[C@@H](CN4CCOCC4)CN5)c(Oc4cnc5[nH]ccc5c4)c3)CC2)=C(c2ccc(Cl)cc2)C1` [Example 4-4, (R)-2-((1H-pyrrolo[2,3-b]pyridin-5-yl)oxy)-4-(4-((4′-chloro-5,5-dimethyl-3,4,5,6-tetra-hydro-[1,1′-biphenyl]-2-yl)methyl)piperazin-1-yl)-N-((2-(morpholinomethyl)-8-nitro-1,2,3,4-tetrahydroquinoxalin-6-yl)sulfonyl) benzamide] has an IC50 [1] of 28 nM and an IC50 [2] of 14 nM.

In the case of `CC1(C)CCC(CN2CCN(c3ccc(C(=O)NS(=O)(=O)c4cc5c(c([N+](=O)[O-])c4)O[C@@H](CN4CCOCC4)CO5)c(Oc4cnc5[nH]ccc5c4)c3)CC2)=C(c2ccc(Cl)cc2)C1` [Example 5-1, (S)-2-((1H-pyrrolo[2,3-b]pyridin-5-yl)oxy)-4-(4-((4′-chloro-5,5-dimethyl-3,4,5,6-tetrahydro-[1,1′-biphenyl]-2-yl)methyl)piperazin-1-yl)-N-((2-(morpholinomethyl)-8-nitro-2,3-dihydrobenzo[b][1,4]dioxin-6-yl)sulfonyl)benzamide], the IC50 [1] is reported as 17 nM and the IC50 [2] is reported as 9 nM.

Compound `CN1CCN(C[C@H]2COc3cc(S(=O)(=O)NC(=O)c4ccc(N5CCN(CC6=C(c7ccc(Cl)cc7)CC(C)(C)CC6)CC5)cc4Oc4cnc5[nH]ccc5c4)cc([N+](=O)[O-])c3O2)CC1` [Example 5-2] has an IC50 [1] of 25 nM and an IC50 [2] of 1 nM.

Compound `CC1(C)CCC(CN2CCN(c3ccc(C(=O)NS(=O)(=O)c4cc5c(c([N+](=O)[O-])c4)O[C@H](CN4CCOCC4)CO5)c(Oc4cnc5[nH]ccc5c4)c3)CC2)=C(c2ccc(Cl)cc2)C1` [Example 5-3, (R)-2-((1H-pyrrolo[2,3-b]pyridin-5-yl)oxy)-4-(4-((4′-chloro-5,5-dimethyl-3,4,5,6-tetrahydro-[1,1′-biphenyl]-2-yl)methyl)piperazin-1-yl)-N-((2-(morpholinomethyl)-8-nitro-2,3-dihydrobenzo[b][1,4]dioxin-6-yl)sulfonyl)benzamide] has an IC50 [1] of 12 nM and an IC50 [2] of 4 nM.

Work on `CN1CCN(C[C@@H]2COc3cc(S(=O)(=O)NC(=O)c4ccc(N5CCN(CC6=C(c7ccc(Cl)cc7)CC(C)(C)CC6)CC5)cc4Oc4cnc5[nH]ccc5c4)cc([N+](=O)[O-])c3O2)CC1` [Example 5-4] yielded an IC50 [1] of 13 nM and an IC50 [2] of 34 nM.

`CC1(C)CCC(CN2CCN(c3ccc(C(=O)NS(=O)(=O)c4cc5c(c([N+](=O)[O-])c4)N[C@H](CN4C[C@@H]6C[C@H]4CO6)CO5)c(-n4ncc5nc6[nH]ccc6cc54)c3)CC2)=C(c2ccc(Cl)cc2)C1` [Example 6-1, N—(((R)-3-(((1S,4S)-2-oxa-5-azabicyclo[2.2.1]heptan-5-yl)methyl)-5-nitro-3,4-dihydro-2H-benzo[b][1,4]oxazin-7-yl)sulfonyl)-4-(4-((4′-chloro-5,5-dimethyl-3,4,5,6-tetrahydro-[1,1′-biphenyl]-2-yl)methyl)piperazin-1-yl)-2-(pyrazolo[4,3-b]pyrrolo[3,2-e]pyridin-1(5H)-yl)benzamide] gave an IC50 [1] of 73 nM and an IC50 [2] of 2 nM.
